Measurements published in patent publication US6841563B1, “Aryloxy propanolamines for improving livestock production” (Eli Lilly and Company, priority 1999, dated 2005).
Marks after values point to notes of the source that are not given here.

Assays:
[1] = Intravenous administration to cattle: serum non-esterified fatty acid (NEFA) and serum urea nitrogen (SUN) levels; type: in vivo; settings: for ΔNEFA 24 Hours / change in vivo at 0.04 mg/kg: 40 μg per kilogram i.v. twice; for ΔNEFA 24 Hours: T+24 h minus T=0; for ΔNEFA 24 Hours / ΔNEFA 15 Min. / change in vivo at 0.04 mg/kg: mean of five animals; for ΔNEFA 15 Min.: 40 μg per kilogram i.v., T+15 min minus T=0; for change in vivo at 0.04 mg/kg: Bos taurus, iv, 24 hours post treatment vs baseline T=0, read-out: Δ% SUN 24 Hours; for lipolytic effects (non-esterified fatty acid levels): fifteen minutes and twenty-four hours after administration; for anabolic effects (change in serum urea nitrogen levels): twenty-four hours after administration, compared with the corresponding carboxamide regioisomers
Description: Intravenous administration of the compounds of the present invention to cattle increases serum non-esterified fatty acids and decreases serum urea. In this Example, angus/angus cross calves, both heifers and steers, weighing approximately 282 pounds (128 kg) initially to 788 pounds (357.8 kg) over the course of these studies, were placed in pens at 5 calves per pen. The cattle were acclimated to the pens for at least 1 week prior to initiating the study.
Calves were fed ad libitum twice daily, (approximately 6-15 pounds (2.7-6.8 kg)/day). During the treatment day, in the A.M. period, the feeding times were staggered to ensure that all animals were fed approximately one hour before the treatments were administered. During the P.M. treatment period, the cattle were fed immediately after receiving the P.M. injection.
After taking a pretreatment (T=O) blood sample from each animal, a 40 μg per kilogram dose of a test compound was administered intravenously in the jugular vein at 6:30 A.M. and 2:30 P.M. Each test compound was administered at a concentration of 1.00-1.25 mg/ml in a treatment vehicle that was a 50/50 mixture of polyethylene glycol 200/water.
A blood sample was taken at fifteen minutes post-treatment (T+15 min). The calves were returned to their respective pens until their next treatment, approximately eight hours later. The next morning at 6:30 A.M. a blood sample was collected from all calves at 24 hours post-treatment (T+24 h). All blood samples were analyzed for the non-esterified fatty acid level (NEFA) and serum urea nitrogen level (SUN). The post-treatment NEFA and SUN levels in each individual animal were compared with the levels found before treatment.

[2] = Weight gain, feed efficiency and carcass characteristics, last 14 days of growing period in broiler chickens; type: in vivo
Description: Approximately 1500 Peterson-Hubbard, day-old, male chicks were used in a randomized, complete-block design with 4 treatments (Control, Clenbuterol at 1 PPM, and Compound 6 at 3 and 15 PPM (mg/kg feed)). The testing facility contained 36 pens, divided equally into 6 blocks. Treatments were randomly allotted to pens within each block. Each treatment consisted of 6 pens with 10 birds per pen.
Day-of-age birds were obtained from Pine Manor Hatchery in Goshen, Ind. Approximately 40 birds per pen were set at random upon receipt. On day 30 of the growout period, all birds were weighed and the 15 birds closest to the block mean were selected. These birds were allowed to acclimate until day 35 of age. On that day, all remaining birds were weighed again, and the 10 birds/pen closest to the block mean were chosen for the treatment phase. Birds were provided ad libitum access to feed and water throughout the trial. All birds were fed a 23% crude protein corn-soy ration from day 1 until day 18 of age. The feed was changed to a 20% crude protein corn-soy ration from day 18 to day 49. The treatment feed was mixed using the same 20% crude protein basal ration. Treatments were administered in the feed from day 35 through day 49. Feed consumption was calculated over the entire 14-day treatment period. Birds were weighed at trial completion (day 49), and transported to Purdue University, West Lafayette, Ind. 47907, U.S.A. meat laboratory for slaughter and carcass measurements on day 50. Weights of the hot carcass, fat pad, and viscera were taken on all animals.

| SMILES | ΔNEFA 24 Hours [1] [µmol/L] | ΔNEFA 15 Min. [1] [µmol/L] | change in vivo at 0.04 mg/kg [1] [%] | other results |
| --- | --- | --- | --- | --- |
| CC(C)(Cc1ccc(Oc2ccc(C(N)=O)cn2)cc1)NC[C@H](O)COc1cccc2[nH]c(=S)[nH]c12 [Compound 3] | 200.2 | 379.4 | -38.2 |  |
| CC(C)(Cc1ccc(Oc2ccccc2C(N)=O)cc1)NC[C@H](O)COc1cccc2[nH]ccc12 [Compound 9] | -15.4 | 99 | -37 |  |
| CC(C)(Cc1ccc(Oc2ccc(C(N)=O)cn2)cc1)NC[C@H](O)COc1cccc2[nH]ncc12 [Compound 1] | 820.9 | 554.4 | -28.7 |  |
| Cc1c[nH]c2cccc(OC[C@@H](O)CNC(C)(C)Cc3ccc(Oc4ncccc4C(N)=O)cc3)c12 [Compound 12] | -63.7 | 332.6 | -30.1 |  |
| CC(C)(Cc1ccc(Oc2cccc(Cl)c2C(N)=O)cc1)NC[C@H](O)COc1cccc2[nH]ccc12 [Compound 10] | -72.7 | 52.7 | -20.7 |  |
| CC(C)(Cc1ccc(Oc2ncccc2C(N)=O)cc1)NC[C@H](O)COc1cccc2[nH]c(=O)[nH]c12 [Compound 8] | 35.6 | 321.4 | -14.2 | lipolytic effects (non-esterified fatty acid levels) [1]: modest lipolytic effects; anabolic effects (change in serum urea nitrogen levels) [1]: significantly greater |
| CC(C)(Cc1ccc(Oc2ncccc2C(N)=O)cc1)NC[C@H](O)COc1cccc2[nH]c(=S)[nH]c12 [Compound 4] | 265.3 | 283.1 | -57 | lipolytic effects (non-esterified fatty acid levels) [1]: modest lipolytic effects; anabolic effects (change in serum urea nitrogen levels) [1]: significantly greater |
| CC(C)(Cc1ccc(Oc2ccc(C(N)=O)cn2)cc1)NC[C@H](O)COc1cccc2[nH]c(=O)[nH]c12 [Compound 7] | -4.2 | 134.1 | -9.7 |  |
| CC(C)(Cc1ccc(Oc2cccc(Cl)c2C(N)=O)cc1)NC[C@H](O)COc1cccc2[nH]c(C#N)cc12 [Compound 13] | 32.1 | 118.1 | -36.7 |  |
| CC(C)(Cc1ccc(Oc2ccc(Cl)cc2C(N)=O)cc1)NC[C@H](O)COc1cccc2[nH]ccc12 [Compound 11] | -14.1 | 94 | -39.4 |  |
| CC(C)(Cc1ccc(Oc2ncccc2C(N)=O)cc1)NC[C@H](O)COc1cccc2[nH]ncc12 [Compound 2] | 742.4 | 141.2 | -39.3 | lipolytic effects (non-esterified fatty acid levels) [1]: modest lipolytic effects; anabolic effects (change in serum urea nitrogen levels) [1]: significantly greater |
| CC(C)(C)NCC(O)c1cc(Cl)c(N)c(Cl)c1 (stereo not drawn) [Clenbuterol, reference compound] |  |  |  | Dressing Percentage ([2]; 1 PPM in feed, day 35-49): 72.77**; Fat Pad Weight ([2]; 1 PPM in feed, day 35-49): 26.86 g; Final Weight ([2]; 1 PPM in feed, day 35-49): 3.02 kg; Hot Carcass Weights ([2]; 1 PPM in feed, day 35-49): 2191.64** g; Pen Feed Intake ([2]; 1 PPM in feed, day 35-49): 25.20 kg; Total 14 day Weight Gain ([2]; 1 PPM in feed, day 35-49): 1.29 kg; Viscera Weight ([2]; 1 PPM in feed, day 35-49): 285.45 g; Feed Efficiency F/G ([2]; 1 PPM in feed, day 35-49, pen feed intake/total pen weight): 1.99; increase in weight gain over control ([2]; 1 PPM, 14-day treatment period, P=0.1430): 2.38%; improvement of feed efficiency versus control ([2]; 1 PPM, 14-day treatment period, P=0.7320): 0.50%; increase in hot carcass weights compared to control ([2]; 1 PPM, P=0.0027): 3.25%; decrease in viscera weights with respect to control ([2]; 1 PPM, P=0.7215): 0.66% |
| CC(C)(Cc1ccc(Oc2ccc(C(N)=O)cn2)cc1)NC[C@H](O)COc1cccc2[nH]ccc12 [Compound 5] | -5.6 | 170.8 | -28.6 |  |
